Patent US20100234430A1, “METHODS AND PHARMACEUTICAL FORMULATIONS FOR PROTECTING PHARMACEUTICAL COMPOUNDS FROM ACIDIC ENVIRONMENTS” (priority 2001, published 2010)

Experiments:
[1] = Acid neutralization test of tablets, time for pH to rise to 7 (Example 1); format: physicochemical; settings: 840 mg tablet, basket 75 rpm, 50 ml SGF + 50 ml water
Method: 840 mg of each of magnesium hydroxide, tromethamine, and carbicarb were separately compressed into tablets utilizing a carver press having a 13 mm die at a 1 second dwell time and 500 pounds of compression force. Also, a first mixture containing 420 mg of magnesium hydroxide and 420 mg of tromethamine was also compressed into tablet-form using the method described above. Additionally, a second mixture containing 420 mg of magnesium hydroxide and 420 mg of carbicarb was compressed into tablet-form as previously described.
Each of the five different preparations was tested separately in the following manner. Tablets of each preparation were placed in a USP dissolution apparatus basket which was then attached to a spindle. The stirring component of the apparatus was set to rotate the basket at a speed of approximately 75 rpm. The loaded, rotating basket was then immersed into a beaker containing 50 ml of SGF and 50 ml of distilled de-ionized water. The pH of the medium in the beaker was monitored continuously throughout the test procedure utilizing a micro pH electrode.

[2] = Degradation of lansoprazole as a function of pH at 37 degrees C.; format: physicochemical; settings: for half-life: buffer
Description: For example, lansoprazole is a substituted benzimidaole that is an acid labile pharmaceutical compound that inhibits gastric acid secretions. The affect of gastric pH on the degradation of an acid-labile drug such as lansoprazole is conveyed in Table 1. The data shown in Table 1 was collected at 37 degrees C., wherein “K” reflects the first order degradation constant.

Row | half-life ([2]; pH 5, 37 degrees C.) | half-life ([2]; pH 6, 37 degrees C.) | half-life ([2]; pH 7, 37 degrees C.) | half-life ([2]; pH 8, 37 degrees C.) | half-life ([2]; pH 9, 37 degrees C.) | % Drug Remaining After 30 Minutes ([2]; pH 5, 37 degrees C.) | K (first order degradation constant) ([2]; pH 5, 37 degrees C.) | % Drug Remaining After 30 Minutes ([2]; pH 6, 37 degrees C.) | K (first order degradation constant) ([2]; pH 6, 37 degrees C.) | % Drug Remaining After 30 Minutes ([2]; pH 7, 37 degrees C.) | K (first order degradation constant) ([2]; pH 7, 37 degrees C.) | % Drug Remaining After 30 Minutes ([2]; pH 8, 37 degrees C.) | K (first order degradation constant) ([2]; pH 8, 37 degrees C.) | % Drug Remaining After 30 Minutes ([2]; pH 9, 37 degrees C.) | K (first order degradation constant) ([2]; pH 9, 37 degrees C.) | Compound | Time to Raise the pH of SGF to 7 at 37 degrees C. [1]
1 | – | – | – | – | – | – | – | – | – | – | – | – | – | – | – | [Mg+2].[OH-].[OH-] [Magnesium hydroxide] | 565 seconds
2 | – | – | – | – | – | – | – | – | – | – | – | – | – | – | – | NC(CO)(CO)CO [Tromethamine (TRIS), Tromethamine] | 75 seconds
3 | 0.52 h | 3.4 h | 18 h | 37 h | 78 h | 51.37% | 1.33 hr.^−1 | 90.30% | 0.20 hr.^−1 | 98.10% | 0.04 hr.^−1 | 99.10% | 0.02 hr.^−1 | 99.57% | 0.01 hr.^−1 | Cc1c(OCC(F)(F)F)ccnc1C[S+]([O-])c1nc2ccccc2[nH]1 (centres unmarked) [lansoprazole] | –
